For one molecule, IC50 results are on record in article doi:10.1101/2021.09.16.460603v1 (biorxiv, 2021).

For this experiment, the target named is T1, Bovine liver catalase (CAT) (Bos taurus, UniProt P00432).
T1 sequence (P00432 2-527): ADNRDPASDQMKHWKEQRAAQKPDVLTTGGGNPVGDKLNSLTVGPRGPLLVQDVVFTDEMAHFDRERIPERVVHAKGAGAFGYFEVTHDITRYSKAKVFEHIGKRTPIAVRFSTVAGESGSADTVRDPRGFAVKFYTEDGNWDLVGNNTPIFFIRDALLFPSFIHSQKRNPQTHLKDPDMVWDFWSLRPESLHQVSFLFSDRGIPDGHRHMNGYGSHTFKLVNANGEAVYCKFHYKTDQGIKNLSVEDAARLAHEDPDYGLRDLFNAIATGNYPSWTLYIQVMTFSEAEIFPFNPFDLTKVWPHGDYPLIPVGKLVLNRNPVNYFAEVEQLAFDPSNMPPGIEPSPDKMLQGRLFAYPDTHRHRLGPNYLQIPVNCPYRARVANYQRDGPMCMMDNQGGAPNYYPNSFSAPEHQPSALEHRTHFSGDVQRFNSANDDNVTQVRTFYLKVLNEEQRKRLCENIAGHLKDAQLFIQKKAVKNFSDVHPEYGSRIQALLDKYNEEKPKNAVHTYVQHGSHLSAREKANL
Kind of experiment: H2O2 disappearance at […] nm after […] min preincubation with D-Pen. It is filed as biochemical.

Turning to `CC(C)(S)[C@@H](N)C(=O)O` [D-penicillamine], the IC50 turned out to be 191 ± 26 µM.
